# Like-named read-outs stand apart in the source and are kept apart here.
# How the values were obtained:
# Type in all cases: in vivo
# [1] = test system: Alternanthera philoxeroides (Mart.) Griseb. (alligatorweed); experiment: Greenhouse in-water herbicidal activity, flooded pot system; settings: ALRPH 5 node, 20 DAA
# Description: (§1) Weed seeds, nutlets, or vegetative cuttings of the desired test plant species were planted in puddled soil (mud) prepared by mixing a shredded, non-sterilized mineral soil (50.5 percent silt, 25.5 percent clay, and 24 percent sand, with a pH of approximately 7.6 and an organic matter content of approximately 2.9 percent) and water at a 1:1 volumetric ratio. The prepared mud was dispensed in 365 milliliter (mL) aliquots into 480 mL non-perforated plastic pots with a surface area of 86.59 square centimeters (cm^2) leaving a headspace of 3 centimeters (cm) in each pot. Mud was allowed to dry overnight prior to planting or transplanting.
# (§2) The aquatic environment was created by filling the 3 cm headspace of the pots with water. […] The plants were grown for 4-20 days in a greenhouse with an approximate 14 hour (h) photoperiod which was maintained at about 29° C. during the day and about 26° C. during the night. Nutrients were added as Osmocote® (19:6:12, N:P:K+minor nutrients) at 2 grams (g) per 480 mL pot. Water was added on a regular basis to maintain the paddy flood, and supplemental lighting was provided with overhead metal halide 1000-Watt lamps as necessary. The plants were employed for testing when they reached the second through fifth true leaf stage or 5th node stage.
# (§3) Treatments consisted of the benzyl ester of 4-amino-3-chloro-5-fluoro-6-(4-chloro-2-fluoro-3-methoxy-phenyl)pyridine-2-carboxylic acid (Compound II) formulated as a suspension concentrate (SC) and various herbicidal components alone and in combination.
# (§4) Measured amounts of formulated compounds were placed in individual glass vials and were dissolved in an aliquot of an aqueous mixture containing 1.25% volume per volume (v/v) Agri-Dex® crop oil concentrate. A stock solution was prepared for each treatment concentration. Applications were made by injecting an appropriate amount of the application solution into the aqueous layer of the flooded greenhouse pot. Control plants were treated in the same manner with the solvent blank.
# (§5) The treated plants and control plants were placed in a greenhouse as described above and water was added as needed to maintain a flood in the pot. After approximately 20 days after application (DAA), the condition of the test plants, compared with that of the untreated plants, was determined visually and scored on a scale of 0 to 100 percent where 0 corresponds to no injury or growth reduction and 100 corresponds to complete kill.
# [2] = test system: Cyperus esculentus L. (yellow nutsedge); experiment: as above; settings: CYPES 4 lf (30% submerged), 20 DAA
# Description: as §1, §2, §3, §4, §5
# [3] = test system: Echinochloa crus-galli (L.) P. Beauv. (barnyardgrass); settings: ECHCG 2-5 lf (30% submerged), 20 DAA
# Description: as §1, §2, §3, §4, §5
# [4] = test system: Ischaemum rugosum Salisb. (saramollagrass)
# Description: as §1, §2, §3, §4, §5
# [5] = test system: Leptochloa chinensis (L.) Nees (Chinese sprangletop); settings: LEFCH 5 lf (30% submerged), 20 DAA
# Description: as §1, §2, §3, §4, §5
# [6] = test system: Echinochloa oryzoides (Ard.) Fritsch (early watergrass); experiment: Greenhouse in-water herbicidal activity, flooded pot system; settings: ECHOR 2-3 lf (20-30% submerged), 20 DAA
# Description: as §1
# The aquatic environment was created by filling the 3 cm headspace of the pots with water. When required to ensure good germination and healthy plants, a fungicide treatment and/or other chemical or physical treatment was applied. The plants were grown for 4-20 days in a greenhouse with an approximate 14 hour (h) photoperiod which was maintained at about 29° C. during the day and about 26° C. during the night. Nutrients were added as Osmocote® (19:6:12, N:P:K+minor nutrients) at 2 grams (g) per 480 mL pot. […]
# Treatment requirements for each compound or herbicidal component were calculated based upon the rates being tested, the concentration of active ingredient or acid equivalent in the formulation, and a treatment application volume of 2 mL per compound per pot.
# Measured amounts of formulated compounds were placed in individual glass vials and were dissolved in an aliquot of an aqueous mixture containing 1.25% volume per volume (v/v) Agri-Dex® crop oil concentrate. […]
# as §5
# [7] = 2100 ppb (elemental copper basis) in water
# [8] = 4200 ppb (elemental copper basis) in water
# [9] = 8300 ppb (elemental copper basis) in water
molecule,measurement,setting,value
"COc1c(Cl)ccc(-c2nc(C(=O)OCc3ccccc3)c(Cl)c(N)c2F)c1F [Compound II, benzyl 4-amino-3-chloro-5-fluoro-6-(4-chloro-2-fluoro-3-methoxyphenyl)pyridine-2-carboxylate]",Compound II Mean % Weed Control,[1]; 33.25 ppb in water,55.0%
same,Compound II Mean % Weed Control,[1]; 33.3 ppb in water,55.0%
same,Compound II Mean % Weed Control,[1]; 66.6 ppb in water,68.0%
same,Compound II Mean % Weed Control,[2]; 33.25 ppb in water,18.0%
same,Compound II Mean % Weed Control,[2]; 33.3 ppb in water,18.0%
same,Compound II Mean % Weed Control,[2]; 66.6 ppb in water,68.0%
same,Compound II Mean % Weed Control,[3]; 33.25 ppb in water,65.0%
same,Compound II Mean % Weed Control,"[4]; ISCRU 2-3 lf (30-50% submerged), 66.6 ppb in water, 20 DAA",75.0%
same,Compound II Mean % Weed Control,"[4]; ISCRU 2-3 lf (30-50% submerged), 133.4 ppb in water, 20 DAA",85.0%
same,Compound II Mean % Weed Control,[5]; 66.6 ppb in water,20.0%
same,Compound II Mean % Weed Control,[6]; 33.3 ppb in water,25.0%
same,Compound II Mean % Weed Control,[6]; 133.4 ppb in water,78.0%
"c1cc[n+]2c(c1)-c1cccc[n+]1CC2 [Diquat Dibromide, 9,10-dihydro-8a,10a-diazoniaphenanthrene]",Diquat Dibromide Mean % Weed Control,[4]; in vivo,0.0%
same,Diquat Dibromide Mean % Weed Control,[6]; 900 ppb in water,0.0%
"O=C(O)C1C2CCC(O2)C1C(=O)O (centres unmarked) [Endothal, 7-oxabicyclo[2.2.1]heptane-2,3-dicarboxylic acid]",Endothal Mean % Weed Control,[1]; 1120 ppb in water,0.0%
same,Endothal Mean % Weed Control,[1]; 4480 ppb in water,0.0%
same,Endothal Mean % Weed Control,[1]; 8960 ppb in water,0.0%
same,Endothal Mean % Weed Control,[2]; 1120 ppb in water,0.0%
same,Endothal Mean % Weed Control,[2]; 4480 ppb in water,0.0%
same,Endothal Mean % Weed Control,"[4]; ISCRU 2-3 lf (30-50% submerged), 1120 ppb in water, 20 DAA",0.0%
same,Endothal Mean % Weed Control,"[4]; ISCRU 2-3 lf (30-50% submerged), 4480 ppb in water, 20 DAA",0.0%
"Cn1cc(-c2ccccc2)c(=O)c(-c2cccc(C(F)(F)F)c2)c1 [Fluridone, 1-methyl-3-phenyl-5-(α,α,α-trifluoro-m-tolyl)-4-pyridone]",Fluridone Mean % Weed Control,[1]; 180 ppb in water,65.0%
same,Fluridone Mean % Weed Control,[2]; 10 ppb in water,0.0%
same,Fluridone Mean % Weed Control,[2]; 45 ppb in water,0.0%
same,Fluridone Mean % Weed Control,[2]; 90 ppb in water,0.0%
same,Fluridone Mean % Weed Control,"[4]; ISCRU 2-3 lf (30-50% submerged), 10 ppb in water, 20 DAA",10.0%
same,Fluridone Mean % Weed Control,"[4]; ISCRU 2-3 lf (30-50% submerged), 45 ppb in water, 20 DAA",10.0%
copper(II) sulfate [Copper Sulfate],Copper Sulfate Mean % Weed Control,[1]; 300 ppb in water,0.0%
same,Copper Sulfate Mean % Weed Control,[1]; 600 ppb in water,0.0%
same,Copper Sulfate Mean % Weed Control,[1]; 900 ppb in water,0.0%
same,Copper Sulfate Mean % Weed Control,[2]; 300 ppb in water,0.0%
same,Copper Sulfate Mean % Weed Control,[2]; 600 ppb in water,0.0%
mixed copper ethanolamine complex,Mixed Copper Ethanolamine Complex Mean % Weed Control,[1]; [7],0.0%
same,Mixed Copper Ethanolamine Complex Mean % Weed Control,[1]; [8],0.0%
same,Mixed Copper Ethanolamine Complex Mean % Weed Control,[1]; [9],0.0%
same,Mixed Copper Ethanolamine Complex Mean % Weed Control,[3]; [7],0.0%
same,Mixed Copper Ethanolamine Complex Mean % Weed Control,[3]; [8],0.0%
same,Mixed Copper Ethanolamine Complex Mean % Weed Control,[3]; [9],0.0%
same,Mixed Copper Ethanolamine Complex Mean % Weed Control,"[4]; ISCRU 2-3 lf (30-50% submerged), 8300 ppb (elemental copper basis) in water, 20 DAA",0.0%
same,Mixed Copper Ethanolamine Complex Mean % Weed Control,[5]; [8],0.0%
same,Mixed Copper Ethanolamine Complex Mean % Weed Control,[5]; [9],0.0%
